Measurements reported in ChEMBL document CHEMBL1154501, “2/4-Substituted-9-fluorenones and their O-glucosides as potential immunomodulators and anti-herpes simplex virus-2 agents. Part 5” (Eur J Med Chem, 2008).

Assays:
PBMC [1] = test: Induction of IFNalpha release in human PBMC at 40 ug/mL after 48 hrs by ELISA; format: functional
PBMC [2] = test: Induction of TNFalpha release in human PBMC at 20 ug/mL after 24 hrs by ELISA; format: functional
PBMC [3] = test: Induction of TNFalpha release in human PBMC at 20 ug/mL after 48 hrs by ELISA; format: functional
PBMC [4] = test: Cytotoxicity against human PBMC at 60 ug/mL after 48 hrs by MTT assay; format: cell-based
PBMC [5] = test: Cytotoxicity against human PBMC at 40 ug/mL after 48 hrs by MTT assay; format: cell-based
PBMC [6] = test: Induction of IFNalpha release in human PBMC at 40 ug/mL after 24 hrs by ELISA; format: functional
PBMC [7] = test: Cytotoxicity against human PBMC at 20 ug/mL after 48 hrs by MTT assay; format: cell-based
PBMC [8] = test: Induction of TNFalpha release in human PBMC at 40 ug/mL after 48 hrs by ELISA; format: functional
PBMC [9] = test: Induction of IFNalpha release in human PBMC at 20 ug/mL after 24 hrs by ELISA; format: functional
Human alphaherpesvirus 2 [10] = test: Antiviral activity against HSV2 in human PBMC assessed as inhibition of viral replication at 40 ug/mL; format: functional
PBMC [11] = test: Induction of TNFalpha release in human PBMC at 40 ug/mL after 24 hrs by ELISA; format: functional
Human alphaherpesvirus 2 [12] = test: Antiviral activity against HSV2 in human PBMC assessed as inhibition of viral replication at 20 ug/mL; format: functional
PBMC [13] = test: Induction of IFNalpha release in human PBMC at 20 ug/mL after 48 hrs by ELISA; format: functional

| SMILES | Activity (PBMC [1]) [pg/mL] | Activity (PBMC [2]) [pg/mL] | Activity (PBMC [3]) [pg/mL] | Activity (PBMC [4]) [%] | Activity (PBMC [5]) [%] | Activity (PBMC [6]) [pg/mL] | Activity (PBMC [7]) [%] | Activity (PBMC [8]) [pg/mL] | Activity (PBMC [9]) [pg/mL] | PFU/ml (Human alphaherpesvirus 2 [10]) | Activity (PBMC [11]) [pg/mL] | PFU/ml (Human alphaherpesvirus 2 [12]) | Activity (PBMC [13]) [pg/mL] |
| --- | --- | --- | --- | --- | --- | --- | --- | --- | --- | --- | --- | --- | --- |
| O=C(NCCOCCO[C@@H]1O[C@H](CO)[C@@H](O[C@H]2O[C@H](CO)[C@@H](O)[C@H](O)[C@H]2O)[C@H](O)[C@H]1O)c1ccc2c(c1)C(=O)c1ccccc1-2 | 30 | <5.8 | 18 | 18 | 0 | <4.8 | 0 | 27 | <4.8 | 32000 | <5.8 | 53000 | 10 |
| O=C(NCCOCCO[C@@H]1O[C@H](CO)[C@@H](O)[C@H](O)[C@H]1O)c1ccc2c(c1)C(=O)c1ccccc1-2 | 31 | 9 | 31 | 6 | 0 | 8 | 0 | 39 | <4.8 | 36000 | 13 | 49000 | 17 |
| O=C(OCCCCO[C@H]1O[C@H](CO)[C@@H](O)[C@H](O)[C@H]1O)c1cccc2c1-c1ccccc1C2=O |  |  |  | 57 | 38 |  | 22 |  |  |  |  |  |  |
| O=C(NCCCCO)c1ccc2c(c1)C(=O)c1ccccc1-2 |  |  |  | 45 | 28 |  | 20 |  |  |  |  |  |  |
| O=C(OCCCCO[C@@H]1O[C@H](CO[C@H]2O[C@H](CO)[C@@H](O)[C@H](O)[C@H]2O)[C@@H](O)[C@H](O)[C@H]1O)c1cccc2c1-c1ccccc1C2=O |  | <5.8 | 15 | 52 | 29 |  | 0 |  | <4.8 |  |  | 68000 | 9 |
| O=C(NCCO)c1ccc2c(c1)C(=O)c1ccccc1-2 | 29 | <5.8 | 13 | 2 | 0 | 9 | 0 | 36 | <4.8 | 37000 | 14 | 48000 | 11 |
| O=C(OCCCCO[C@@H]1O[C@H](CO)[C@@H](O[C@H]2O[C@H](CO)[C@@H](O)[C@H](O)[C@H]2O)[C@H](O)[C@H]1O)c1cccc2c1-c1ccccc1C2=O |  |  |  | 69 | 37 |  | 26 |  |  |  |  |  |  |
| O=C(NCCOCCOC1O[C@H](COC2O[C@H](CO)[C@@H](O)[C@H](O)[C@H]2O)[C@@H](O)[C@H](O)[C@H]1O)c1ccc2c(c1)C(=O)c1ccccc1-2 (single isomer, unassigned) | 25 | <5.8 | 16 | 21 | 0 | <4.8 | 0 | 21 | <4.8 | 35000 | <5.8 | 42000 | 14 |
| O=C(OCCCO)c1cccc2c1-c1ccccc1C2=O |  | <5.8 | 11 | 41 | 22 |  | 0 |  | <4.8 |  |  | 60000 | 8 |
| O=C(OCCCCO[C@H]1O[C@H](CO[C@H]2O[C@H](CO[C@H]3O[C@H](CO)[C@@H](O)[C@H](O)[C@H]3O)[C@@H](O)[C@H](O)[C@H]2O)[C@@H](O)[C@H](O)[C@H]1O)c1cccc2c1-c1ccccc1C2=O |  | <5.8 | 9 | 42 | 19 |  | 0 |  | <4.8 |  |  | 70000 | 14 |
| O=C(OCCO)c1cccc2c1-c1ccccc1C2=O |  | <5.8 | 21 | 14 | 6 |  | 0 |  | <4.8 |  |  | 58000 | 16 |
| O=C(NCCCO)c1ccc2c(c1)C(=O)c1ccccc1-2 | 37 | <5.8 | 40 | 15 | 0 | 13 | 0 | 51 | <4.8 | 4100 | 27 | 6500 | 7 |
| O=C(NCCOCCO[C@H]1O[C@H](CO)[C@@H](O)[C@H](O)[C@H]1O)c1ccc2c(c1)C(=O)c1ccccc1-2 | 31 | <5.8 | 14 | 16 | 0 | <4.8 | 0 | 30 | <4.8 | 34000 | <5.8 | 60000 | 17 |
| CC(O)CNC(=O)c1ccc2c(c1)C(=O)c1ccccc1-2 (stereo unspecified) | 45 | <5.8 | 20 | 5 | 0 | 21 | 0 | 33 | <4.8 | 3500 | 14 | 6000 | 18 |
| O=C(OCCCCO)c1cccc2c1-c1ccccc1C2=O |  | <5.8 | 6 | 38 | 21 |  | 0 |  | <4.8 |  |  | 71000 | 12 |
| O=C(NCCOCCO)c1ccc2c(c1)C(=O)c1ccccc1-2 | 38 | <5.8 | 17 | 4 | 0 | 6 | 0 | 48 | <4.8 | 3900 | 24 | 5300 | 21 |
| O=C(OCCCCO[C@@H]1O[C@H](CO)[C@@H](O)[C@H](O)[C@H]1O)c1cccc2c1-c1ccccc1C2=O | 29 | <5.8 | 18 | 7 | 0 | <4.8 | 0 | 30 | <4.8 | 36000 | <5.8 | 78000 | 10 |
